According to patent US20160074643A1, “SKIN CARE PRODUCTS” (The Procter & Gamble Company, priority 2014, published 2016):
Where “and” joins values, the source holds several entries; their conditions need not be identical. Identical values can stand only once.

Assay: Vitamin B3 in vivo skin penetration study #2: Tape Stripping Method, magnetic vs non-magnetic applicator
Design: species or system human; amount of niacinamide recovered from tape strip / amount of niacinamide recovered from tape strip, Avg / amount of niacinamide recovered, Sum 2-10 / amount of niacinamide recovered, Sum 2-10, Avg / amount of niacinamide recovered, Sum 6-10 / amount of niacinamide recovered, Sum 6-10, Avg: unit not given here
Settings: for amount of niacinamide recovered from tape strip, Avg / amount of niacinamide recovered, Sum 2-10, Avg / amount of niacinamide recovered, Sum 6-10, Avg: average across all 10 test sites; for amount of niacinamide recovered, Sum 2-10, Avg / amount of niacinamide recovered, Sum 2-10: sum of strips 2-10; for amount of niacinamide recovered, Sum 6-10, Avg / amount of niacinamide recovered, Sum 6-10: sum of strips 6-10
Protocol: This method provides a suitable means of measuring the amount of skin care active present in skin, and comparing active versus passive application of the skin care active. Two identical circular areas of 7.9 cm^2 were marked on the volar forearms of volunteers. A measured dose (approximately 9 mg) of the skin care formulation (ingredients shown in Table 1) was applied to the delineated areas using a screw actuated syringe. Active application was carried out using purpose made applicators having a metallic aluminium skin contact surface behind which was the magnetic array. The cream was spread evenly across the entire delineated region using the applicator in a sweeping motion with a fixed speed of approximately 3.5 cm/s to mimic normal finger application. Passive application was performed using the tip of a finger in a sweeping motion identical to that of application using the applicator. The application period was 30 seconds during which time visual inspection was used to ensure even distribution and absorption of the formulation by skin. The application area was then left uncovered for a further 30 minutes to ensure complete absorption. The application area was then wiped thoroughly to remove any surface material, followed by carrying out tape stripping.
The Tape Stripping Method can be carried out using commercial pre-cut 22.1 mm tape stripping adhesive discs (D-SQUAME brand tape strips from Cuderm Corporation or equivalent) with an adhesive area of 3.8 cm^2. A 22.1 mm diameter circular region was marked at the center of the application area. A tape stripping adhesive disc was placed over the marked area and even pressure applied using a neoprene roller, rolled ten times over the surface. The adhesive disc was removed from the skin surface in a single pulling motion using manual tweezers. To ensure even removal of the stratum corneum, subsequent discs were removed in a north, south, east and west orientation. Each adhesive disc was non-destructively analyzed for relative protein content using the SquameScan™ 850 instrument (Heiland Electronics Wetzlar Germany). The adhesive disc was then immediately placed into a glass vial containing extraction solvent in preparation for subsequent analysis. Solvent extractions are conducted on each tape strip using conventional extraction methods, which are well known to those of ordinary skill in the art, and measuring the amount of niacinamide present in the extract, for example, by high performance liquid chromatography (“HPLC”) and/or mass spectrometry.
In this example, 5 test subjects (A to E in Tables 13 and 14) were selected. […] The applicator used for active application included Array #8 from Table 2. The applicator used for passive application was the same as the one used for active application except without the magnetic array. Each forearm included an active application test site and a passive application site for a total of 10 active test sites and 10 passive sites. The application time was 30 seconds with a speed of motion of approximately 3 cm per second, equating to a gentle rubbing action. Application of the composition was followed by a 30 minute absorption period. […] The level of niacinamide recovered from each tape strip was measured using HPLC.
The average value across all test sites is shown in the second to last cell of the row. The standard error of the mean (SEM) is shown in the last column of Tables 13 and 14. The SEM is calculated by dividing the standard deviation by the square root of the number of test sites. The active versus passive application results from Tables 13 and 14 are graphically illustrated in FIG. 7.
The enhancement values shown in Table 15 are calculated by dividing the active value from Table 14 by the passive value from Table 13. The average shown in the last column of Table 15 is calculated by averaging the enhancement values of all the test sites. […]

[1] = active value divided by passive value, average of all test sites
[2] = active value divided by passive value, individual test sites, Subjects A-E, Site 1/2
[3] = Active Application (magnetic applicator, Array #8)
[4] = Active Application (magnetic applicator, Array #8), individual test sites, Subjects A-E, Site 1/2
[5] = Passive Application (non-magnetic applicator)
[6] = Passive Application (non-magnetic applicator), individual test sites, Subjects A-E, Site 1/2

Enhancement value Strips 2-10, Avg [1]: 1.47
Enhancement value Strips 6-10, Avg [1]: 1.46
niacinamide delivered into the skin, active compared to passive application (magnetic applicator vs non-magnetic applicator): about 1.5 ×
amount of niacinamide recovered from tape strip, Avg (strip 1, Active Application (magnetic applicator, Array #8)): 4.43
amount of niacinamide recovered from tape strip, Avg (strip 1, Passive Application (non-magnetic applicator)): 3.87
amount of niacinamide recovered from tape strip, Avg (strip 2, Active Application (magnetic applicator, Array #8)): 6.10
amount of niacinamide recovered from tape strip, Avg (strip 2, Passive Application (non-magnetic applicator)): 4.12
amount of niacinamide recovered from tape strip, Avg (strip 3, Active Application (magnetic applicator, Array #8)): 8.37
amount of niacinamide recovered from tape strip, Avg (strip 3, Passive Application (non-magnetic applicator)): 5.69
amount of niacinamide recovered from tape strip, Avg (strip 4, Active Application (magnetic applicator, Array #8)): 8.25
amount of niacinamide recovered from tape strip, Avg (strip 4, Passive Application (non-magnetic applicator)): 6.18
amount of niacinamide recovered from tape strip, Avg (strip 5, Active Application (magnetic applicator, Array #8)): 7.68
amount of niacinamide recovered from tape strip, Avg (strip 5, Passive Application (non-magnetic applicator)): 4.91
amount of niacinamide recovered from tape strip, Avg (strip 6, Active Application (magnetic applicator, Array #8)): 7.02
amount of niacinamide recovered from tape strip, Avg (strip 6, Passive Application (non-magnetic applicator)): 4.72
amount of niacinamide recovered from tape strip, Avg (strip 7, Active Application (magnetic applicator, Array #8)): 5.52
amount of niacinamide recovered from tape strip, Avg (strip 7, Passive Application (non-magnetic applicator)): 3.66
amount of niacinamide recovered from tape strip, Avg (strip 8, Active Application (magnetic applicator, Array #8)): 4.63
amount of niacinamide recovered from tape strip, Avg (strip 8, Passive Application (non-magnetic applicator)): 3.43
amount of niacinamide recovered from tape strip, Avg (strip 9, Active Application (magnetic applicator, Array #8)): 5.11
amount of niacinamide recovered from tape strip, Avg (strip 9, Passive Application (non-magnetic applicator)): 3.59
amount of niacinamide recovered from tape strip, Avg (strip 10, Active Application (magnetic applicator, Array #8)): 4.48
amount of niacinamide recovered from tape strip, Avg (strip 10, Passive Application (non-magnetic applicator)): 3.20
amount of niacinamide recovered, Sum 2-10, Avg [3]: 57.16
amount of niacinamide recovered, Sum 2-10, Avg [5]: 39.48
amount of niacinamide recovered, Sum 6-10, Avg [3]: 26.76
amount of niacinamide recovered, Sum 6-10, Avg [5]: 18.59
SMILES: NC(=O)c1cccnc1 [niacinamide]
Enhancement value Strips 2-10 [2]: 1.63 and 1.35 and 1.77 and 1.47 and 1.51 and 1.26 and 1.19 and 1.39 and 1.59 and 1.54
Enhancement value Strips 6-10 [2]: 1.53 (2×) and 1.34 and 1.71 and 1.41 and 1.83 and 1.19 and 1.21 and 1.39 and 1.43
amount of niacinamide recovered from tape strip (strip 1, Passive Application (non-magnetic applicator), individual test sites, Subjects A-E, Site 1/2): 2.62 and 3.31 and 3.07 and 2.86 and 3.16 and 5.69 and 4.14 and 6.28 and 0.54 and 7.00
amount of niacinamide recovered from tape strip (strip 2, Passive Application (non-magnetic applicator), individual test sites, Subjects A-E, Site 1/2): 2.66 and 3.81 and 2.71 and 2.52 and 4.24 and 7.80 and 5.47 and 7.28 and 1.84 and 2.88
amount of niacinamide recovered from tape strip (strip 3, Passive Application (non-magnetic applicator), individual test sites, Subjects A-E, Site 1/2): 3.51 and 5.43 and 6.33 and 3.77 and 6.64 and 7.64 and 6.14 and 9.62 and 2.43 and 5.36
amount of niacinamide recovered from tape strip (strip 4, Passive Application (non-magnetic applicator), individual test sites, Subjects A-E, Site 1/2): 4.22 and 2.79 and 8.53 and 4.24 and 7.48 and 7.15 and 5.87 and 11.29 and 1.29 and 8.91
amount of niacinamide recovered from tape strip (strip 5, Passive Application (non-magnetic applicator), individual test sites, Subjects A-E, Site 1/2): 4.57 and 3.79 and 6.08 and 2.74 and 6.35 and 6.21 and 5.61 and 7.10 and 2.27 and 4.36
amount of niacinamide recovered from tape strip (strip 6, Passive Application (non-magnetic applicator), individual test sites, Subjects A-E, Site 1/2): 4.37 and 3.42 and 6.69 and 1.97 and 5.29 and 7.95 and 4.56 and 6.46 and 2.62 and 3.85
amount of niacinamide recovered from tape strip (strip 7, Passive Application (non-magnetic applicator), individual test sites, Subjects A-E, Site 1/2): 3.57 and 3.37 and 4.35 and 1.87 and 3.82 and 6.89 and 5.41 and 0.19 and 2.67 and 4.47
amount of niacinamide recovered from tape strip (strip 8, Passive Application (non-magnetic applicator), individual test sites, Subjects A-E, Site 1/2): 2.65 and 2.92 and 2.85 and 1.56 and 4.65 and 5.34 and 2.94 and 5.75 and 1.88 and 3.71
amount of niacinamide recovered from tape strip (strip 9, Passive Application (non-magnetic applicator), individual test sites, Subjects A-E, Site 1/2): 2.95 and 2.37 and 2.24 and 2.00 and 3.78 and 6.70 and 2.79 and 7.20 and 2.15 and 3.70
amount of niacinamide recovered from tape strip (strip 10, Passive Application (non-magnetic applicator), individual test sites, Subjects A-E, Site 1/2): 1.58 and 2.24 and 1.54 and 1.31 and 4.53 and 5.34 and 2.42 and 6.19 and 0.71 and 6.10
amount of niacinamide recovered, Sum 2-10 [4]: 49.17 and 40.65 and 72.98 and 32.23 and 70.46 and 76.77 and 48.95 and 85.20 and 28.48 and 66.67
amount of niacinamide recovered, Sum 2-10 [6]: 30.09 and 30.15 and 41.32 and 21.97 and 46.79 and 61.02 and 41.20 and 61.08 and 17.87 and 43.34
amount of niacinamide recovered, Sum 6-10 [4]: 23.12 and 19.16 and 30.14 and 12.25 and 40.38 and 38.27 and 21.85 and 35.82 and 15.32 and 31.26
amount of niacinamide recovered, Sum 6-10 [6]: 15.13 and 14.32 and 17.67 and 8.70 and 22.07 and 32.21 and 18.11 and 25.79 and 10.04 and 21.84
